Literature values as cited in paper PMC9344054, “Studies on Chemical Characterization of Ginkgo Amillaria Oral Solution and Its Drug–Drug Interaction With Piceatannol 3′-O-β-D-Glucopyranoside for Injection” (Frontiers in Pharmacology, 2022).

Legend:
[1] = test system: most human UGTs, including UGT1A1, 1A3, 1A4, 1A6, 1A7, 1A8, and 1A9; set-up: method as in Lv et al., 2018; details: UGT1A1, 1A3, 1A4, 1A6, 1A7, 1A8, 1A9; ref Lv et al., 2018; cited from earlier work
[2] = test system: breast cancer resistance protein; set-up: method as in An et al., 2011; Palatini and De Martin, 2016; details: ref An et al., 2011; Palatini and De Martin, 2016; cited from earlier work
[3] = test system: P-glycoprotein; set-up: method as in An et al., 2011; Palatini and De Martin, 2016; details: previous studies; ref An et al., 2011; Palatini and De Martin, 2016; cited from earlier work
[4] = test system: human hepatic UGT1A1; set-up: method as in Cao et al., 2017; details: in vitro; ref Cao et al., 2017; cited from earlier work
[5] = test system: human hepatic UGT1A4; set-up: method as in Cao et al., 2017; details: in vitro; ref Cao et al., 2017; cited from earlier work
[6] = set-up: method as in Zhao et al., 2006; details: pretreatment of GBE 100 mg kg−1 for 10 days; ref Zhao et al., 2006; cited from earlier work
[7] = test system: UGT1A9; set-up: method as in Zhang et al., 2021; details: ref Zhang et al., 2021; cited from earlier work
[8] = test system: UGT1A1; set-up: method as in Zhang et al., 2021; details: ref Zhang et al., 2021; cited from earlier work
[9] = test system: UGT1A6; set-up: method as in Zhang et al., 2021; details: ref Zhang et al., 2021; cited from earlier work
[10] = test system: UGT1A3; set-up: method as in Zhang et al., 2021; details: ref Zhang et al., 2021; cited from earlier work
[11] = set-up: method as in Fan et al., 2009; details: ten healthy male volunteers, ref Fan et al., 2009, cited from earlier work

SMILES: O=c1cc(-c2ccc(O)c(-c3c(O)cc(O)c4c(=O)cc(-c5ccc(O)cc5)oc34)c2)oc2cc(O)cc(O)c12 [amentoflavone]
- inhibition toward most human UGTs [1]: strong inhibition

SMILES: O=c1c(O)c(-c2ccc(O)cc2)oc2cc(O)cc(O)c12 [kaempferol]
- inhibition of breast cancer resistance protein [2]: inhibitor
- inhibition of the P-glycoprotein-mediated efflux of ritonavir [3]: remarkable inhibition

SMILES: O=c1cc(-c2ccc(O)c(O)c2)oc2cc(O)cc(O)c12 [luteolin]
- inhibition of human hepatic UGT1A1 [4]: inhibited
- inhibition of human hepatic UGT1A4 [5]: inhibited

SMILES: CC(C)NCC(O)COc1cccc2ccccc12 (stereo not shown) [propranolol]
- change of AUC of propranolol [6]: significantly reduce
- change of C max of propranolol [6]: significantly reduce

SMILES: O=c1c(O)c(-c2ccc(O)c(O)c2)oc2cc(O)cc(O)c12 [quercetin]
- inhibition of UGT1A9 [7]: strong inhibitor
- inhibition of UGT1A1 [8]: moderate inhibitor
- inhibition of UGT1A6 [9]: weak inhibitor
- inhibition of human hepatic UGT1A1 [4]: inhibited
- inhibition of UGT1A3 [10]: moderate inhibitor
- inhibition of human hepatic UGT1A4 [5]: inhibited

SMILES: CC(C)(C)NCC(O)COc1ccc(NC(=O)NC2CCCCC2)cc1 (stereo not shown) [talinolol]
- increase of AUC0-24 of talinolol ([11]; repeated ingestion of GBE): 26%
- increase of C max of talinolol ([11]; repeated ingestion of GBE): 36%
- effect on pharmacokinetics of talinolol ([11]; single dose of GBE orally): did not affect
